According to BindingDB's records for doi:10.7270/Q2F18X5F (Nmmlsc, 2010):
pEC50: −log10 of the molar value.

Target: T1, Ammonium transporter MEP2 (Saccharomyces cerevisiae (strain ATCC 204508 / S288c), UniProt P41948)
T1 sequence (P41948 whole entry): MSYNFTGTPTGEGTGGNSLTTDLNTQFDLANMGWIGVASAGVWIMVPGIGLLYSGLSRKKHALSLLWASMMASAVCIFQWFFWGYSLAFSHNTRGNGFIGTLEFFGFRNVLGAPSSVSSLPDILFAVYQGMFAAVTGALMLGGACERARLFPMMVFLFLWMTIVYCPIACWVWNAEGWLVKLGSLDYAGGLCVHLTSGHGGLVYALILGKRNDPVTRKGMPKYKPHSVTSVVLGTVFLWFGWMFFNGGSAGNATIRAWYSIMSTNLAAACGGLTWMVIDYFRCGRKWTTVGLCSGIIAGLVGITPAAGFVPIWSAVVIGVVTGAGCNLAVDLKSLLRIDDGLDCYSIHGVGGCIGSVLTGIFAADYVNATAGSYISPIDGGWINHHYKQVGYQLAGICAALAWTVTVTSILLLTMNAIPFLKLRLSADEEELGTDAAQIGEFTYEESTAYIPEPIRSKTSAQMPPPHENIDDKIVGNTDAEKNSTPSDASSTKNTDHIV
Test: modulators of MEP2-GFP levels in yeast, dose response, S. cerevisiae, flow cytometry GFP, MLPCN hits (AID 2742)

CCN1/C(=C/c2ccc3cc(C)ccc3[n+]2CC)Sc2ccc3sccc3c21 [MLS000724336]
pEC50: < 4.48
